Measured values as given in patent US20250049776A1, “AUTOPHAGY INDUCING COMPOUNDS AND USES THEREOF, IN PARTICULAR FOR A SYSTEMIC TREATMENT OF DISEASES AND CONDITIONS” (Samsara Therapeutics Inc., priority 2021, published 2025).
Where two headings read alike, the source gives them in different places.

Tests used:
[1] = system: U2OS cell line stabling expressing RFP-eGFP-hLC3b; experiment: Tandem reporter assay (autophagic flux, RFP-only puncta); assay type: cell-based; details: Homo sapiens, RFP-only puncta as percentage of DMSO-treated control, 24 hours; for activity at 1 µM: read-out: Autolysosome % DMSO activity (compound concentration of 1 μM); for activity at 10 µM: read-out: Autolysosome % DMSO activity (compound concentration of 10 μM)
Description: Selected compounds of this invention were also assessed for their ability to stimulate autophagy using a U20S cell line stabling expressing RFP-eGFP-hLC3b (a tandem reporter cell line). During the process of autophagy, the cargo to be degraded is first enveloped by organelles called autophagosomes. These autophagosomes then fuse with lysosomes, causing them to become acidified and their digestive enzymes to become activated. The term “autophagic flux” is used to represent the dynamic process of autophagy: autophagic flux refers to the whole process of autophagy, including autophagosome formation, maturation, fusion with lysosomes, subsequent breakdown and the release of macromolecules back into the cytosol (Zhang X J, Chen S, Huang K X, Le W D. Why should autophagic flux be assessed? Acta Pharmacol Sin. 2013 May; 34(5): 595-9. doi: 10.1038/aps.2012.184. Epub 2013 Mar. 11). Compounds that stimulate autophagic flux stimulate the dynamic process of autophagy (the whole process of autophagy).
LC3b is a protein found in the membrane of autophagosomes which has been used to generate genetic reporters of autophagy in cells. In these systems a tandem fusion of LC3b is engineered with two fluorescent proteins of different wavelengths: one which is acid sensitive (for example eGFP, which fluoresces green) and the other which is acid insensitive (for example RFP, which fluoresces red). Cells expressing RFP-eGFP-hLC3b can be examined using fluorescent microscopy: the autophagosomes present will fluoresce in both channels (either yellow in an overlay of both channels or puncta that are present in both the individual red and green channels) but the autolysosomes present will fluoresce in the RFP (red) channel only. Using a fluorescent microscope, the number of autophagosomes and autolysosomes can be counted, allowing for the monitoring of both the induction of autophagy (total puncta count) and the rate of autophagic flux (ratio of red-only to red-and-green puncta). The influence of small molecules on autophagy induction and flux can be assessed using this system by comparison to a non-treated control.
Representative Procedure: Human osteosarcoma U2OS cells stably expressing RFP-eGFP-hLC3b were seeded (10,000 cells/well) into a 96-well glass-bottom plate (Cell Carrier Ultra, Perkin Elmer) in DMEM Glutamax media (Gibco) supplemented with 10% Fetal Bovine Serum (FBS) and antibiotics (100 u/ml penicillin, 100 μg/ml streptomycin, Invitrogen), then incubated overnight in a humified atmosphere at 37° C. and 5% CO2. The cells were then treated with the compounds of interest, dissolved in DMSO, in a duplicated 5- or 10-point dose-response. 8 wells were treated with an equivalent volume of DMSO, 4 with 0.3 μM torin-1 as a positive control (MCE) and 4 wells with 0.4 μM torin-1 plus 0.2 μM bafilomycin (MCE) as a control for flux inhibition. The cells were returned to the incubator and the treatment continued for 24 hours. After treatment, the media was aspirated off and the cells fixed with a solution of 4% formaldehyde+1% glutaraldehyde (Sigma) in dPBS (plus magnesium and calcium, Gibco).
Fixation was allowed to proceed for 15 minutes at room temperature then the fixative solution discarded and replaced with PBS (Gibco) plus Hoescht 33342 ([…], Sigma). After 30 minutes the plates were imaged on an Opera Phenix confocal microscope (Perkin-Elmer) using a 40× water objective, collecting using DAPI, mCherry and GFP channels. Cells were detected based upon the staining of their nuclei with DAPI using the Harmony image analysis software (Perkin-Elmer) and the number of autophagosomes (GFP and RFP puncta) and autolysosomes (RFP only puncta) per cell were counted using the spot picking function within the software.

[2] = system: Human osteosarcoma U20S cells; experiment: Assay to measure lysosome and autolysosome formation (acidic vesicle formation, LysoView/LysoTracker staining); assay type: cell-based; details: Homo sapiens, U2OS cells, concentration of 0.8 μM
In short: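 U2OS cells treated with compounds in DMSO for 24 h, then stained 45 min at 37 °C with 1× LysoView 633 or 50 nM LysoTracker Deep Red, with Hoechst nuclear counterstain. Live-cell fluorescence imaging at 37 °C; acidic vesicle formation judged against DMSO-treated control.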

[3] = read-out: Activity (percentage increase in acidic vesicle formation over the DMSO-treated control), Table 2

Row | Structure (SMILES) | activity at 1 µM [1] [%] | activity at 10 µM [1] [%] | activation at 0.8 µM [2, 3] [%] | activation at 0.8 µM ([2]; read-out: Activity (percentage increase in acidic vesicle formation), Table 2a Preferred compounds) [%]
1 | CC(C)N(C(=O)c1csc(-c2cnn(-c3ccccc3OC(F)(F)F)c2)n1)[C@H]1CCNC1 [Compound 396, N-(propan-2-yl)-N-[(3S)-pyrrolidin-3-yl]-2-{1-[2-(trifluoromethoxy)phenyl]-1H-pyrazol-4-yl}-1,3-thiazole-4-carboxamide] | 138 | 78 |  | 
2 | CN(C(=O)c1nc(-c2cnn(-c3ccccc3)c2)c[nH]1)[C@H]1CCNC1 [Compound 359, N-methyl-5-(1-phenyl-1H-pyrazol-4-yl)-N-[(3S)-pyrrolidin-3-yl]-1H-imidazole-2-carboxamide] | 113 | 144 |  | 
3 | CC(C)N(C(=O)c1csc(-c2cnn(C(C)(C)C)c2)n1)C1CCNCC1 [Compound 394, 2-(1-tert-butyl-1H-pyrazol-4-yl)-N-(piperidin-4-yl)-N-(propan-2-yl)-1,3-thiazole-4-carboxamide] | 114 | 176 |  | 
4 | CC(C)N(C(=O)c1csc(-c2cnn(C)c2)n1)[C@H]1CCNC1 [Compound 389, 2-(1-methyl-1H-pyrazol-4-yl)-N-(propan-2-yl)-N-[(3S)-pyrrolidin-3-yl]-1,3-thiazole-4-carboxamide] | 101 | 108 |  | 
5 | O=C(c1coc(-c2cnn(-c3ccccc3OC(F)(F)F)c2)n1)N1C[C@H]2C[C@@H]1CN2 [Compound 378, (1R,4R)-2-(2-{1-[2-(trifluoromethoxy)phenyl]-1H-pyrazol-4-yl}-1,3-oxazole-4-carbonyl)-2,5-diazabicyclo[2.2.1]heptane] | 122 | 199 |  | 
6 | CN(C(=O)c1coc(-c2cnn(-c3ccccc3)c2)n1)[C@H]1CCNC1 [Compound 360, N-methyl-2-(1-phenyl-1H-pyrazol-4-yl)-N-[(3S)-pyrrolidin-3-yl]-1,3-oxazole-4-carboxamide] | 113 | 214 |  | 
7 | CN(C(=O)c1csc(-c2cnn(-c3ccccc3)n2)n1)[C@@H]1CCNC1 [Compound 363, N-methyl-2-(2-phenyl-2H-1,2,3-triazol-4-yl)-N-[(3R)-pyrrolidin-3-yl]-1,3-thiazole-4-carboxamide] | 171 |  |  | 
8 | CC(C)N(C(=O)c1csc(-c2cnn(-c3ccccc3Cl)c2)n1)[C@H]1CCNC1 [Compound 395, 2-[1-(2-chlorophenyl)-1H-pyrazol-4-yl]-N-(propan-2-yl)-N-[(3S)-pyrrolidin-3-yl]-1,3-thiazole-4-carboxamide] | 137 | 191 |  | 
9 | CC(C)N(C(=O)c1csc(-c2cnn(C(C)(C)C)c2)n1)[C@H]1CCNC1 [Compound 391, 2-(1-tert-butyl-1H-pyrazol-4-yl)-N-(propan-2-yl)-N-[(3S)-pyrrolidin-3-yl]-1,3-thiazole-4-carboxamide] | 109 | 161 |  | 
10 | CC(C)N(C(=O)c1nc(-c2cnn(-c3ccccc3)c2)c[nH]1)[C@@H]1CCNC1 [Compound 345, 5-(1-phenyl-1H-pyrazol-4-yl)-N-(propan-2-yl)-N-[(3R)-pyrrolidin-3-yl]-1H-imidazole-2-carboxamide] | 116 | 72 |  | 
11 | CCN(C(=O)c1csc(-c2cnn(-c3ccccc3)n2)n1)[C@@H]1CCNC1 [Compound 365, N-ethyl-2-(2-phenyl-2H-1,2,3-triazol-4-yl)-N-[(3R)-pyrrolidin-3-yl]-1,3-thiazole-4-carboxamide] | 183 |  |  | 
12 | CC(C)N(C(=O)c1csc(-c2cnn(-c3ccccc3)c2)n1)C1CCNCC1(F)F (stereo not drawn) [Compound 382, N-(3,3-difluoropiperidin-4-yl)-2-(1-phenyl-1H-pyrazol-4-yl)-N-(propan-2-yl)-1,3-thiazole-4-carboxamide] | 96 | 108 |  | 
13 | CC(C)N(C(=O)c1csc(-c2cnn(C(C)C)c2)n1)C1CCNCC1 [Compound 393, N-(piperidin-4-yl)-N-(propan-2-yl)-2-[1-(propan-2-yl)-1H-pyrazol-4-yl]-1,3-thiazole-4-carboxamide] | 106 | 110 |  | 
14 | CN(C(=O)c1cnc(-c2cnn(-c3ccccc3)c2)[nH]1)[C@H]1CCNC1 [Compound 358, N-methyl-2-(1-phenyl-1H-pyrazol-4-yl)-N-[(3S)-pyrrolidin-3-yl]-1H-imidazole-4-carboxamide] | 102 | 103 |  | 
15 | CCN(C(=O)c1csc(-c2cnn(-c3ccccn3)c2)n1)[C@H]1CCNC1 [Compound 367, N-ethyl-2-[1-(pyridin-2-yl)-1H-pyrazol-4-yl]-N-[(3S)-pyrrolidin-3-yl]-1,3-thiazole-4-carboxamide] | 114 | 215 |  | 
16 | CC(C)N(C(=O)c1csc(-c2cnn(C(C)C)c2)n1)[C@H]1CCNC1 [Compound 390, N-(propan-2-yl)-2-[1-(propan-2-yl)-1H-pyrazol-4-yl]-N-[(3S)-pyrrolidin-3-yl]-1,3-thiazole-4-carboxamide] | 106 | 116 |  | 
17 | CC(C)N(C(=O)c1csc(-c2cnn(-c3ccccc3)c2)n1)C1CCNCC1F (stereo not drawn) [Compound 383, N-(3-fluoropiperidin-4-yl)-2-(1-phenyl-1H-pyrazol-4-yl)-N-(propan-2-yl)-1,3-thiazole-4-carboxamide] | 98 | 194 |  | 
18 | COc1ccccc1-n1cc(-c2nc(C(=O)N(C(C)C)[C@H]3CCNC3)cs2)cn1 [Compound 398, 2-[1-(2-methoxyphenyl)-1H-pyrazol-4-yl]-N-(propan-2-yl)-N-[(3S)-pyrrolidin-3-yl]-1,3-thiazole-4-carboxamide] | 116 | 190 |  | 
19 | CC(C)N(C(=O)c1coc(-c2cnn(-c3ccccc3)c2)n1)[C@H]1CCNC1 [Compound 381, 2-(1-phenyl-1H-pyrazol-4-yl)-N-(propan-2-yl)-N-[(3S)-pyrrolidin-3-yl]-1,3-oxazole-4-carboxamide] | 118 | 179 |  | 
20 | O=C(c1csc(-c2cnn(-c3ccccc3OC(F)(F)F)c2)n1)N1C[C@H]2C[C@@H]1CN2 [Compound 376, (1R,4R)-2-(2-{1-[2-(trifluoromethoxy)phenyl]-1H-pyrazol-4-yl}-1,3-thiazole-4-carbonyl)-2,5-diazabicyclo[2.2.1]heptane] | 176 | 260 |  | 
21 | CCCN(C(=O)c1csc(-c2cnn(-c3cccc(F)c3)c2)n1)[C@H]1CCNC1 [Compound 52, 2-[1-(3-fluorophenyl)-1H-pyrazol-4-yl]-N-propyl-N-[(3S)-pyrrolidin-3-yl]-1,3-thiazole-4-carboxamide] |  |  | 10 to 30 | 
22 | CCCN(C(=O)c1csc(-c2cnn(-c3cccc(C)c3)c2)n1)[C@H]1CCNC1 [Compound 28, 2-[1-(3-methylphenyl)-1H-pyrazol-4-yl]-N-propyl-N-[(3S)-pyrrolidin-3-yl]-1,3-thiazole-4-carboxamide] |  |  | 10 to 30 | 
23 | CCCN(C(=O)c1csc(-c2cnn(-c3ccccc3F)c2)n1)[C@H]1CCNC1 [Compound 92, 2-[1-(2-fluorophenyl)-1H-pyrazol-4-yl]-N-propyl-N-[(3S)-pyrrolidin-3-yl]-1,3-thiazole-4-carboxamide] |  |  | 50 to 100 | 50 to 100
